# Earlier results, collected in patent US7879374B2, “Composition including superoxide dismutase and prickly-pear cactus for minimizing and preventing hangovers” (priority 2005, dated 2011).
# Assays:
# [1] = recent study of one-hundred twenty young females
# [2] = by speeding the use of fat during exercise
# [3] = rat, in vivo, po
# [4] = tested on: hepatic metabolizing enzymes for lipids and alcohol
# [5] = liver of rats given sesamin vs vehicle
smiles,measurement,setting,value
Cc1ncc(C[n+]2csc(CCO)c2C)c(N)n1 [Thiamin],effects on mood and cognitive functioning,[1],positive effects
Cn1c(=O)c2c(ncn2C)n(C)c1=O [Caffeine],increase in endurance,[2],about fifteen
c1cc2c(cc1[C@H]1OC[C@H]3[C@@H]1CO[C@@H]3c1ccc3c(c1)OCO3)OCO2 [Sesamin],dose of sesamin detected in bile as glucuronides of catechol metabolites,[3],Over 40 % of the dose
same,"gene expression levels of the late stage enzymes of beta-oxidation (trifunctional enzyme, acyl-CoA oxidase, bifunctional enzyme, 3-ketoacyl-CoA thiolase)",[4]; [5],significantly increased
same,gene expression of alcohol dehydrogenase,[4]; [5],not changed
same,gene expression of aldehyde dehydrogenase,[4]; [5],about 3 fold
same,gene expression of liver catalase,[4]; [5],not changed
same,transcription of the genes encoding the enzymes for fatty acid synthesis,[4]; [5],decreased
same,gene expression of CYP2E1,"[4]; rat, in vivo",not changed
